From patent US11820764B2, “Compound modulating GSK-3 activity” (National Institute of Immunology, priority 2020, dated 2023)

Columns and labels:
[1] = Blood brain barrier crossing, mass spectrometry of cerebrospinal fluid of treated mice; assay type: in vivo; conditions: CSF of treated animals
[2] = Pharmacokinetics in rats, plasma HPLC; assay type: in vivo; conditions: both sexes, rat, 15 ug/kg
Description: The rats were randomly divided into two groups (I and II) in half respectively male and female. A dose of 15 μg/kg of Compound Y was administered to group I and II. Serial blood samples (0.5 mL) were collected into heparinized tubes from the retro-orbital region at 1, 2, 4, 6, 12, 24, 36, 48, and 72 h. Samples were immediately centrifuged at 12,000 rpm for 10 min and stored at −20° C. until analysis. Plasma was processed for HPLC analysis. 100 μl Acetonitrile was added in 100 μl plasma (1:1) and centrifuge at 12,000 for 5 minute. Supernatant transferred in a clean tube. Dried under Nitrogen gas 200 μl Acetonitrile: water (1:1) was added in dry tube and centrifuge at 12,000 rpm for 15 minute. Filtered with 0.2 μm membrane filter. 20 μl samples were used for analysis in HPLC. […] (FIG. 5)

## O=C(O)CCCCCN1C(=O)/C(=C/c2c[nH]c3ccccc23)SC1=S [SG001]
[1]
  crossing of blood brain barrier (detection in CSF): able to cross the blood brain barrier
[2]
  Cmax: 27 nM
  Tmax: 48 h
